The values below come from patent publication US20200361895A1, “NOVEL SULFONAMIDE CARBOXAMIDE COMPOUNDS” (Inflazome Limited, priority 2017, published 2020).

Test [1] deals with T1, NLRP3 (Homo sapiens, UniProt Q96P20). In words: THP-1 cells pyroptosis assay (LPS + nigericin, resazurin readout; THP IC50). Set-up: Seed THP-1 cells (25,000 cells/well) containing 1.0 μg/ml LPS in 40 μl of RPMI medium; host or cells: THP-1 cells. Type of test: cell-based. The procedure, abridged: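 Human THP-1 cells, 25,000/well in serum-free RPMI with 1 μg/ml LPS, treated 3 hrs at 37° C with compound (8-point half-log, 10 μM top, 0.1% DMSO), then 5 μM nigericin 1 hr. Viability by 100 μM resazurin fluorescence after 1-2 hrs; IC50 by 4-parameter fit.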

Test [2] deals with T1, NLRP3. In words: Human whole blood IL1β release assay (LPS + nigericin, AlphaLisa IL-1β; HWB IC50). Type of test: cell-based. Set-up: Human whole blood in Li-heparin tubes was obtained from healthy donors from a volunteer donor panel; from tissue; host or cells: human whole blood from healthy donors. As to conditions: IL-1β release. The procedure, abridged:
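Donor Li-heparin whole blood primed with 1 μg/ml LPS, given compound (8-point half-log series, 10 μM top; DMSO 0.1% final) for 3 h at 37 °C, then nigericin 10 μM final for 1 h. Supernatant IL-1β measured by AlphaLisa; IC50 from 4-parameter variable-slope fit.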
On the technique in general: In Alpha technology, singlet oxygen from a donor bead excites a nearby acceptor bead.

Where a name gives a salt, the structure may show the parent alone.

T1 sequence (Q96P20 whole entry): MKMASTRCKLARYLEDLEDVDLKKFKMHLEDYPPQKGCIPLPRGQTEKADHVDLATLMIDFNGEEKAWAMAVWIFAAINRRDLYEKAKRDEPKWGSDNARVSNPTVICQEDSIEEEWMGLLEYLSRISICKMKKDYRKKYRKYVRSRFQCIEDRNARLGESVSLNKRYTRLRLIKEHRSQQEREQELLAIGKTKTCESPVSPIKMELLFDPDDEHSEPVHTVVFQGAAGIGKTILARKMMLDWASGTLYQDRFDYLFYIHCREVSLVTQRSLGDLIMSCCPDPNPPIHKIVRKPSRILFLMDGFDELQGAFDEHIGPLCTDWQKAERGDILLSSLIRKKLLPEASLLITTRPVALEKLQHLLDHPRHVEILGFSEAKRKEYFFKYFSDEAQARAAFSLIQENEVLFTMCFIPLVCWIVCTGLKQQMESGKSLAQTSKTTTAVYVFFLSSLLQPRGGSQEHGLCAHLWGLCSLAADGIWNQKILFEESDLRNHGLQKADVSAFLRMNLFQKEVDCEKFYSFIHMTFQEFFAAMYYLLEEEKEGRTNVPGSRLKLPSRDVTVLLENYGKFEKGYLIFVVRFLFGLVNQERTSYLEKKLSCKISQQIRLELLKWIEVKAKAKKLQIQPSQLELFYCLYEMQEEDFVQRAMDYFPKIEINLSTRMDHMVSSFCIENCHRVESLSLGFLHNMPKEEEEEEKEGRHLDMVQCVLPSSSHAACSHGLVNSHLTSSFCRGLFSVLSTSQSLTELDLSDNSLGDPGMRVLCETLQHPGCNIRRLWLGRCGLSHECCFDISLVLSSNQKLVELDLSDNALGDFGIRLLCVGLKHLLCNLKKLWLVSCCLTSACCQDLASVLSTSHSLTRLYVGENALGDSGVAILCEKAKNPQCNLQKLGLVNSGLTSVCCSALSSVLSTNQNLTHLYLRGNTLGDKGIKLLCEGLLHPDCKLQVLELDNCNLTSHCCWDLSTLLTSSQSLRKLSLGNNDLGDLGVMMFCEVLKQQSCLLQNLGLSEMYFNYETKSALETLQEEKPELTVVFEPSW

Regarding `CNCc1cc(S(=O)(=O)NC(=O)Nc2c(-c3ccnc(OC)c3)ccc3c2CCC3)nn1C1CC1` [Example 190, 1-Cyclopropyl-N-((5-(2-methoxypyridin-4-yl)-2,3-dihydro-1H-inden-4-yl)carbamoyl)-5-((methylamino)methyl)-1H-pyrazole-3-sulfonamide, sodium salt], the IC50 on NLRP3 [1] and on NLRP3 [2] was at most 500 nM each time.
As for `COc1cc(-c2ccc3c(c2NC(=O)NS(=O)(=O)c2cc(C4CCCN4C)n(C(C)C)n2)CCC3)ccn1` (stereo not drawn) [Example 191, 1-Isopropyl-N-((5-(2-methoxypyridin-4-yl)-2,3-dihydro-1H-inden-4-yl)carbamoyl)-5-(1-methylpyrrolidin-2-yl)-1H-pyrazole-3-sulfonamide, sodium salt], the values for the IC50 on NLRP3 [1] and at NLRP3 [2] were at most 500 nM and at most 1000 nM, respectively.
`CCC(c1cc(S(=O)(=O)NC(=O)Nc2c(-c3ccnc(OC)c3)ccc3c2CCC3)nn1C(C)C)N(C)C` (stereo not drawn) [Example 192, 5-(1-(Dimethylamino)propyl)-1-isopropyl-N-((5-(2-methoxypyridin-4-yl)-2,3-dihydro-1H-inden-4-yl)carbamoyl)-1H-pyrazole-3-sulfonamide]: the IC50 on NLRP3 [1] and at NLRP3 [2] was at most 500 nM each time.
Regarding `COc1cc(-c2ccc3c(c2NC(=O)NS(=O)(=O)c2cc(CN(C)C)n(C(C)C)n2)CCC3)ccn1` [Example 193, 5-((Dimethylamino)methyl)-1-isopropyl-N-((5-(2-methoxypyridin-4-yl)-2,3-dihydro-1H-inden-4-yl)carbamoyl)-1H-pyrazole-3-sulfonamide], the IC50 on NLRP3 [1] and at NLRP3 [2] was at most 500 nM in each case.
For `CC(C)(C#N)n1ccc(S(=O)(=O)NC(=O)Nc2c(-c3ccnc(OC(F)F)c3)ccc3c2CCO3)n1` [Example 195, 1-(2-Cyanopropan-2-yl)-N-((5-(2-(difluoromethoxy)pyridin-4-yl)-2,3-dihydrobenzofuran-4-yl)carbamoyl)-1H-pyrazole-3-sulfonamide], the IC50 on NLRP3 [1] and on NLRP3 [2] was at most 500 nM each time.
With `COc1cc(-c2ccc3c(c2NC(=O)NS(=O)(=O)c2ccn(C(C)(C)C#N)n2)CCO3)ccn1` [Example 196, 1-(2-Cyanopropan-2-yl)-N-((5-(2-methoxypyridin-4-yl)-2,3-dihydrobenzofuran-4-yl)carbamoyl)-1H-pyrazole-3-sulfonamide], the IC50 on NLRP3 [1] and on NLRP3 [2] was at most 500 nM each time.
Take `CNCC(C)(C)n1ccc(S(=O)(=O)NC(=O)Nc2c(-c3ccnc(OC)c3)ccc3c2CCC3)n1` [Example 197, N-((5-(2-Methoxypyridin-4-yl)-2,3-dihydro-1H-inden-4-yl)carbamoyl)-1-(2-methyl-1-(methylamino)propan-2-yl)-1H-pyrazole-3-sulfonamide, sodium salt]: the IC50 on NLRP3 [1] and at NLRP3 [2] was at most 500 nM each time.
For `CN(C)CC(C)(C)n1ccc(S(=O)(=O)NC(=O)Nc2c(-c3ccnc(OC4CC4)c3)ccc3c2CCO3)n1` [Example 198, N-((5-(2-Cyclopropoxypyridin-4-yl)-2,3-dihydrobenzofuran-4-yl)carbamoyl)-1-(1-(dimethylamino)-2-methylpropan-2-yl)-1H-pyrazole-3-sulfonamide, sodium salt], the IC50 at NLRP3 [1] and on NLRP3 [2] was at most 500 nM each time.
For `COc1cc(-c2ccc3c(c2NC(=O)NS(=O)(=O)c2ccn(C4CCN(C)C4)n2)CCC3)ccn1` (stereo not drawn) [Example 199, N-((5-(2-Methoxypyridin-4-yl)-2,3-dihydro-1H-inden-4-yl)carbamoyl)-1-(1-methylpyrrolidin-3-yl)-1H-pyrazole-3-sulfonamide, sodium salt], the 50% inhibitory concentration (IC50) at NLRP3 [1] and at NLRP3 [2] was at most 500 nM each time.
Take `CN(C)CC(C)(C)n1ccc(S(=O)(=O)NC(=O)Nc2c(-c3ccnc(OC4CC4)c3)ccc3c2CCC3)n1` [Example 200, N-((5-(2-Cyclopropoxypyridin-4-yl)-2,3-dihydro-1H-inden-4-yl)carbamoyl)-1-(1-(dimethylamino)-2-methylpropan-2-yl)-1H-pyrazole-3-sulfonamide, sodium salt]: the IC50 on NLRP3 [1] and at NLRP3 [2] was at most 500 nM each time.
As for `COc1cc(-c2ccc3c(c2NC(=O)NS(=O)(=O)c2ccn(C(C)(C)C#N)n2)CCC3)ccn1` [Example 201, 1-(2-Cyanopropan-2-yl)-N-((5-(2-methoxypyridin-4-yl)-2,3-dihydro-1H-inden-4-yl)carbamoyl)-1H-pyrazole-3-sulfonamide, sodium salt], the concentration for half-maximal inhibition (IC50) at NLRP3 [1] and on NLRP3 [2] was at most 500 nM each time.
Turning to `CN(C)CC(C)(C)n1ccc(S(=O)(=O)NC(=O)Nc2c(-c3ccnc(C#N)c3)ccc3c2CCC3)n1` [Example 202, N-((5-(2-Cyanopyridin-4-yl)-2,3-dihydro-1H-inden-4-yl)carbamoyl)-1-(1-(dimethylamino)-2-methylpropan-2-yl)-1H-pyrazole-3-sulfonamide], the IC50 at NLRP3 [1] and at NLRP3 [2] was at most 500 nM each time.
For `CN(C)CC(C)(C)n1ccc(S(=O)(=O)NC(=O)Nc2c(-c3cccnc3)ccc3c2CCC3)n1` [Example 203, 1-(1-(Dimethylamino)-2-methylpropan-2-yl)-N-((5-(pyridin-3-yl)-2,3-dihydro-1H-inden-4-yl)carbamoyl)-1H-pyrazole-3-sulfonamide], the concentration for half-maximal inhibition (IC50) at NLRP3 [1] and at NLRP3 [2] was at most 500 nM in each case.
Turning to `CC(C)n1ccc(S(=O)(=O)NC(=O)Nc2c(-c3cccnc3)cc(F)c3c2CCC3)n1` [Example 206, N-((7-Fluoro-5-(pyridin-3-yl)-2,3-dihydro-1H-inden-4-yl)carbamoyl)-1-isopropyl-1H-pyrazole-3-sulfonamide], the figures for the IC50 on NLRP3 [1] and on NLRP3 [2] were at most 500 nM and at most 5000 nM, respectively.
Take `CC(C)n1ccc(S(=O)(=O)NC(=O)Nc2c(-c3cccnc3)ccc3ccccc23)n1` [Example 207, 1-Isopropyl-N-((2-(pyridin-3-yl)naphthalen-1-yl)carbamoyl)-1H-pyrazole-3-sulfonamide]: the IC50 (as a rule, the point on the concentration scale where inhibition reaches its midpoint) at NLRP3 [1] was at most 1000 nM; on NLRP3 [2] it was at most 5000 nM.
For `COc1cc(-c2ccc3ccccc3c2NC(=O)NS(=O)(=O)c2ccn(C(C)C)n2)ccn1` [Example 209, 1-Isopropyl-N-((2-(2-methoxypyridin-4-yl)naphthalen-1-yl)carbamoyl)-1H-pyrazole-3-sulfonamide], the results for the concentration for half-maximal inhibition (IC50) on NLRP3 [1] and on NLRP3 [2] were at most 500 nM and at most 5000 nM, respectively.
With `COc1cc(-c2cc(F)cc(C3CC3)c2NC(=O)NS(=O)(=O)c2ccn(C(C)C)n2)ccn1` [Example 210, N-((2-Cyclopropyl-4-fluoro-6-(2-methoxypyridin-4-yl)phenyl)carbamoyl)-1-isopropyl-1H-pyrazole-3-sulfonamide], the IC50 at NLRP3 [1] is at most 500 nM; at NLRP3 [2], at most 5000 nM.
Consider `COc1cc(-c2cc(F)cc(C3CCCC3)c2NC(=O)NS(=O)(=O)c2ccn(C(C)C)n2)ccn1` [Example 211, N-((2-Cyclopentyl-4-fluoro-6-(2-methoxypyridin-4-yl)phenyl)carbamoyl)-1-isopropyl-1H-pyrazole-3-sulfonamide], for which the IC50 is at most 500 nM at NLRP3 [1] and at most 5000 nM at NLRP3 [2].
As to `COc1cc(-c2ccc3c(c2NC(=O)NS(=O)(=O)c2ccn(C(C)C)n2)CCCC3)ccn1` [Example 213, 1-Isopropyl-N-((2-(2-methoxypyridin-4-yl)-5,6,7,8-tetrahydronaphthalen-1-yl)carbamoyl)-1H-pyrazole-3-sulfonamide], the IC50 is at most 500 nM on NLRP3 [1] and at most 5000 nM on NLRP3 [2].
Take `CCOc1cc(-c2ccc3c(c2NC(=O)NS(=O)(=O)c2ccn(C(C)C)n2)CCC3)ccn1` [Example 214, N-((5-(2-Ethoxypyridin-4-yl)-2,3-dihydro-1H-inden-4-yl)carbamoyl)-1-isopropyl-1H-pyrazole-3-sulfonamide]: the IC50 on NLRP3 [1] is at most 500 nM; on NLRP3 [2], at most 1000 nM.
For `CC(C)n1ccc(S(=O)(=O)NC(=O)Nc2c(-c3ccnc(C#N)c3)ccc3c2CCC3)n1` [Example 215, N-((5-(2-Cyanopyridin-4-yl)-2,3-dihydro-1H-inden-4-yl)carbamoyl)-1-isopropyl-1H-pyrazole-3-sulfonamide], the IC50 on NLRP3 [1] and on NLRP3 [2] was at most 500 nM in each case.
With `CC(C)Oc1cc(-c2ccc3c(c2NC(=O)NS(=O)(=O)c2ccn(C(C)C)n2)CCC3)ccn1` [Example 216, N-((5-(2-Isopropoxypyridin-4-yl)-2,3-dihydro-1H-inden-4-yl)carbamoyl)-1-isopropyl-1H-pyrazole-3-sulfonamide], the IC50 is at most 500 nM on NLRP3 [1] and at most 5000 nM at NLRP3 [2].
Take `CC(C)n1ccc(S(=O)(=O)NC(=O)Nc2c(-c3cc[nH]c(=O)c3)ccc3c2CCC3)n1` [Example 218, 1-Isopropyl-N-((5-(2-oxo-1,2-dihydropyridin-4-yl)-2,3-dihydro-1H-inden-4-yl)carbamoyl)-1H-pyrazole-3-sulfonamide]: the IC50 at NLRP3 [1] was at most 500 nM; at NLRP3 [2], at most 1000 nM.
Take `COc1cc(-c2ccc3c(c2NC(=O)NS(=O)(=O)c2ccn(C(C)(C)CN4CCC4)n2)CCC3)ccn1` [Example 219, 1-(1-(Azetidin-1-yl)-2-methylpropan-2-yl)-N-((5-(2-methoxypyridin-4-yl)-2,3-dihydro-1H-inden-4-yl)carbamoyl)-1H-pyrazole-3-sulfonamide]: the 50% inhibitory concentration (IC50) on NLRP3 [1] and on NLRP3 [2] was at most 500 nM each time.
